These results are taken from patent US20080261923A1, “Alkene Mimics” (priority 2004, published 2008).

SMILES strings stand for the structures.

This assay has as its target human Pin1 (Homo sapiens, UniProt Q13526). The assay can be described thus: IC50 measurement of inhibitors for Pin1 (chymotrypsin-coupled peptidyl-prolyl isomerase assay, SucAEPF-pNA). Particulars: cis substrate SucAEPF-pNA 43.2 μM, 31 mM HEPES pH 7.8, 4° C., absorbance at 390 nm; read-out: IC50 value for the inhibition of human Pin1 peptidyl-prolyl isomerase activity. The assay is classed as biochemical. The protocol:
Measurement of human Pin1 peptidyl-prolyl isomerase activity. The concentration of the cis conformation of substrate, SucAEPF-pNA, was determined by the UV absorbance of pNA (ε=12250 at […]) after cleavage by α-chymotrypsin. The cis component of the substrate was approximately 51%. The assay buffer (1050 μL of 35 mM HEPES, pH 7.8 at 0° C.; final concentration 31 mM HEPES) and Pin1 (10 μL of a 8.0 μM stock solution, concentration measured by Bradford assay, final concentration 67 nM) were pre-equilibrated in the spectrometer until the temperature reached 4.0° C. Immediately before the assay was started, 120 μL of ice-cooled α-chymotrypsin solution (60 mg/mL in 0.001 M HCl; final concentration 6 mg/mL) was added. Additional substrate solvent (0.47 M LiCl/TFE) was added as needed to bring the total volume of substrate and cosolvent to 10 μL. The peptide substrate, dissolved in dry 0.47 M LiCl/TFE, was added to the cuvette via syringe and the solution was mixed vigorously by inversion 3 times. The final volume in a semi micro 1 cm path length polystyrene cell was 1.2 mL.
IC50 measurement of inhibitors for Pin1. Human Pin1 was assayed at a cis substrate concentration of 43.2 μM. […] After a mixing delay of 6-8 sec, the progress of the reaction was monitored by absorbance at 390 nm for 90 sec.

Sequence of human Pin1 (Q13526 whole entry): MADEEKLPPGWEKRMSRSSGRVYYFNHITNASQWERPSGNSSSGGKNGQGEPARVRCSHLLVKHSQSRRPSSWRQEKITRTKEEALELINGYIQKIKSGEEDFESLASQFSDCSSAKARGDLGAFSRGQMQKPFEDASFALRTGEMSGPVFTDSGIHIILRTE

Regarding `CC(=O)N[C@@H](Cc1ccccc1)C(=O)N[C@@H](Cc1ccc(O)cc1)C(=O)N[C@H](/C=C1/CCC[C@H]1C(=O)N[C@@H](CCCNC(=N)N)C(N)=O)COP(=O)(O)O` [Ac-Phe-Tyr-phosphoSer-Ψ[(Z)CH═C]-Pro-Arg-NH2], the IC50 amounted to 0.97 µM.

By IC50 is commonly meant the concentration needed to halve the response being measured.
